{"source": "patent US7056938B1", "about": "“Method for scavenging radicals with urocanic acid, derivatives and analogues” (Academisch Ziekenhuis Bij De Univ., priority 1999, dated 2006)", "experiment": "photooxidation of UCA with hydrogen peroxide under UV irradiation (HPLC)", "type": "physicochemical", "details": "for YIELD OF PHOTOOXIDATION PRODUCTS: sum of 8 major peaks; for PHOTOISOMERIZATION cis-UCA / PHOTOISOMERIZATION trans-UCA: trans-UCA starting material", "procedure": "Trans-UCA and cis-UCA were separated from each other and from several UCA oxidation products on a 4.6×250 mm Alltima C18 and Luna C18 reversed-phase column (Alitech, Deerfield, Ill. and Phenomenex, Torrence, Calif., resp.) with a flow of 0.8 mL/min, delivered by P-3500 HPLC-pumps (Pharmacia, Uppsala, Sweden). Samples of 20 to 200 μL were injected by a Promis II autosampler (Spark Holland, Emmen, The Netherlands) and chromatographic data were recorded on an SP 4270 integrator (Spectra Physics, San Jose, Calif.). Peak area data from samples were only processed under identical HPLC circumstances. A UV-detector (Applied Biosystems, model 759A, Foster City, Calif.) was set for 226 nm detection. Isocratic elution was performed with 10 mM ammonium formate buffer, containing 0.2–0.8 mM tetrabutylammonium(TBA)formate and 1% acetonitrile (pH 7.2). Collected fractions were acidified with formic acid up to a final concentration of 100 mM and passed through C18 could phase extraction columns (J T Baker, Deventer, The Netherlands) in order to remove TBA.\nA 1-cm quartz cuvette, filled with 1.4 mL sample, was placed in the parallel beam of a filtered 1000 W Xenon are lamp (Oriel, Stratford, Conn.). The samples were magnetically stirred during irradiation. To minimize infrared (heat) and visible radiation, the beam was passed through a water filter (7 cm), reflected by a dichroic mirror and filtered through a 1=mm UG11 filter. Short wave cut off was achieved by passing the beam through WG280, WG305 or WG335 filters with 3 mm thickness each (Schott-Jena, Mainz, Germany). Xenon lamp emission filtered through WG280 included UV-C, UV-B and UV-A; through WG305 UV-B and UV-A and through WG335 only UV-A was included. Two narrow bands in the UV-B and UV-A spectral regions were selected to monitor the xenon-arc emission. The probe of a calibrated EG&G 550 radiometer (Salem, Mass., USA) was equipped with a neutral density filter and narrow band filter type UV-M-IL (Schott-Jena) with a transmission maximum of 21% at 303 nm and a half-width of 11.5 nm to monitor UV-B or with a type UV-PIL (Schott-Jena) with a transmission maximum of 46% at 363 nm and a half-width of 7.7 nm to monitor UV-A. Transmission spectra of the optical filters were checked on a Perkin Elmer Lambda 40 UV/VIS spectrometer (Norwalk, Conn., USA).\nAdditional irradiations were performed with fluorescent tubes TLI2, used as a UV-B source, and TL10R, used as a UV-A source (Philips, Eindhoven, The Netherlands), on samples that were magnetically stirred in small Petri dishes. The UV-B output was measured with an IL 443 phototherapy radiometer, fitted with a SEE 1240 silicon detector probe and the UV-A output with an IL 442A phototherapy radiometer with a SEE 115 detector probe (International Light, Newburyport, Mass., USA).\nThe O—O bond of hydrogen peroxide can be cleaved by UV radiation to yield hydroxyl radicals. Because both UCA isomers could effectively scavenge hydroxyl radicals, it is to be expected that UCA will be degraded and/or converted into oxidation products. The ability of simulated solar UV radiation to convert trans-UCA in the presence of hydrogen peroxide into photooxidation products was tested in vitro and analyzed by reversed-phase HPLC analysis. Hydrogen peroxide eluted close to void volume and trans-UCA and cis-UCA eluted with markedly different elution times of 20 and 64 min (FIGS. 3a–d). […] Exposing 80 μM trans-UCA in the absence of hydrogen peroxide at pH 7.2 to WG280-filtered xenon-arc emission (including UV-C and UV-B) resulted only and in the formation of cis-UCA via the process of photoisomerization (FIG. 3b). […] main photooxidation products were recognized as new peaks based on retention times and were assigned in the chromatogram (FIG. 3c).\nIn contrast, when exposures were performed with simulated solar radiation from which both UV-C and UV-B were blocked out by a WG335 filter, virtually no photo-oxidation products were found (FIG. 3d). […]", "key": {"[1]": {"details": "TL10R unfiltered, 320–440 nm, UV-B 0, UV-A 324"}, "[2]": {"details": "TL12 unfiltered, 280–366 nm, UV-B 3.6, UV-A 4.5"}, "[3]": {"details": "Xe arc W3305, 292–400 nm, UV-B 18, UV-A 70"}, "[4]": {"details": "Xe arc W3335, 320–400 nm, UV-B 0, UV-A 66"}, "[5]": {"details": "Xe arc W3280, 270–400 nm, UV-B 37, UV-A 70"}}, "data": [{"smiles": "O=C(O)/C=C/c1cnc[nH]1", "note": "[trans-Urocanic acid, Trans-urocanic acid]", "values": [{"measurement": "YIELD OF PHOTOOXIDATION PRODUCTS", "setting": "[1]", "result": "16 (±5) A.U."}, {"measurement": "YIELD OF PHOTOOXIDATION PRODUCTS", "setting": "[2]", "result": "149 (±51) A.U."}, {"measurement": "YIELD OF PHOTOOXIDATION PRODUCTS", "setting": "[3]", "result": "239 (±14) A.U."}, {"measurement": "YIELD OF PHOTOOXIDATION PRODUCTS", "setting": "[4]", "result": "45 (±8) A.U."}, {"measurement": "lowering of initial weight after severe photooxidation", "setting": "extensive UCA breakdown (<4% of each UCA isomer left over)", "result": "~14", "unit": "%"}, {"measurement": "UCA LEFT OVER", "setting": "trans-UCA 40 μM, hydrogen peroxide 500 μM, TL10R unfiltered, 320–440 nm, UV-B 0, UV-A 324 kJ · M^−1", "result": "99 (±3) %"}, {"measurement": "UCA LEFT OVER", "setting": "trans-UCA 40 μM, hydrogen peroxide 500 μM, TL12 unfiltered, 280–366 nm, UV-B 3.6, UV-A 4.5 kJ · M^−1", "result": "90 (±20) %"}, {"measurement": "UCA LEFT OVER", "setting": "trans-UCA 40 μM, hydrogen peroxide 500 μM, Xe arc W3280, 270–400 nm, UV-C,-B,-A included, UV-B 37, UV-A 70 kJ · M^−1", "result": "43 (±11) %"}, {"measurement": "YIELD OF PHOTOOXIDATION PRODUCTS", "setting": "trans-UCA 40 μM, hydrogen peroxide 500 μM, Xe arc W3280, 270–400 nm, UV-B 37, UV-A 70", "result": "347 (±58) A.U."}, {"measurement": "UCA LEFT OVER", "setting": "trans-UCA 40 μM, hydrogen peroxide 500 μM, Xe arc W3305, 292–400 nm, UV-B,-A included, UV-B 18, UV-A 70 kJ · M^−1", "result": "64 (±6) %"}, {"measurement": "UCA LEFT OVER", "setting": "trans-UCA 40 μM, hydrogen peroxide 500 μM, Xe arc W3335, 320–400 nm, only UV-A included, UV-B 0, UV-A 66 kJ · M^−1", "result": "95 (±5) %"}, {"measurement": "PHOTOISOMERIZATION cis-UCA", "setting": "[1]", "result": 16, "unit": "%"}, {"measurement": "PHOTOISOMERIZATION trans-UCA", "setting": "[1]", "result": "84 (±7) %"}, {"measurement": "PHOTOISOMERIZATION cis-UCA", "setting": "[2]", "result": 59, "unit": "%"}, {"measurement": "PHOTOISOMERIZATION trans-UCA", "setting": "[2]", "result": "41 (±4) %"}, {"measurement": "PHOTOISOMERIZATION cis-UCA", "setting": "[5]", "result": 59, "unit": "%"}, {"measurement": "PHOTOISOMERIZATION trans-UCA", "setting": "[5]", "result": "43 (±2) %"}, {"measurement": "PHOTOISOMERIZATION cis-UCA", "setting": "[3]", "result": 53, "unit": "%"}, {"measurement": "PHOTOISOMERIZATION trans-UCA", "setting": "[3]", "result": "47 (±3) %"}, {"measurement": "PHOTOISOMERIZATION cis-UCA", "setting": "[4]", "result": 40, "unit": "%"}, {"measurement": "PHOTOISOMERIZATION trans-UCA", "setting": "[4]", "result": "60 (±2) %"}]}]}
